# Experimental data: patent US20220175761A1, “BI-LIGAND DRUG CONJUGATE AND USE THEREOF” (COHERENT BIOPHARMA (SUZHOU), LIMITED, priority 2019, published 2022)
# Key:
# [1] = system: KB, T-47D, NCI-H460, CALU-3, HuH-7, and LNCaP tumor cell lines; test: Inhibition of tumor cell expansion, CCK8 (CB-20BK); type: cell-based, human
# Procedure: Cell lines: KB human oral epidermoid carcinoma cells, T-47D human breast cancer cells, NCI-H460 human lung cancer cells, CALU-3 human lung adenocarcinoma cells, HuH-7 human liver cancer cells and LNCaP human prostate cancer cells
# The cells were prepared in advance, digested with trypsin, collected and counted; with a complete cell culture medium, KB cells were diluted to 2.5×10^4 cells/ml, T-47D cells were diluted to 1.3×10^4 cells/ml, NCI-H460 cells were diluted to 3.5×10^4 cells/ml, CALU-3 cells were diluted to 4.0×10^4 cells/ml, HuH-7 cells were diluted to 3.0×10^4 cells/ml, and LNCaP cells were diluted to 8.0×10^4 cells/ml; 100 μl of the diluted cell solution was added to each well of 96-well plates; and negative control and blank control wells were set on each plate. The 96-well plates added with the cells were placed in an incubator at 37° C., 5% CO2 for culturing overnight.
# The samples were diluted with a culture medium to desired concentrations (see Table 8). […]
# To each well, 15 μl (10% of the liquid volume in a well) of a color developing solution from CCK-8 was added; the plates were incubated at 37° C. for an appropriate time (try to keep the OD value in the range of 1.0-2.0); the covers of the 96-well plates were removed, and the plates were read at 450 nm on a microplate reader (Molecular Devices Spectra MAX Plus). […]
# [2] = system: KB, MIA paca-2, HCC1954, CALU-3 and DU145 cell lines (CDX tumor models); test: Pharmacodynamic study 1 of CB-20BK in CDX models; type: in vivo, BALB/c-nude mice; details: tail vein injection
# Procedure: CB-20BK lyophilized powder was weighed, dissolved with PBS and prepared into a sample mother solution, and the mother solution was diluted with a physiological saline for injection to a sample solution with a working concentration for later use.
# Main cell lines: KB human oral epidermoid carcinoma cells, MIA paca-2 human pancreatic cancer cells, HCC1954 human breast cancer cells, CALU-3 human lung adenocarcinoma cells and DU145 human prostate cancer cells.
# Model construction: The cells were resuscitated, cultured, collected, counted, and subcutaneously injected into the right flank of BALB/c-nude mice. When the tumor grew and expanded to 80-160 mm^3, grouping and administration were performed, or rapidly expanded tumor masses were transferred and injected to mice for scale up.
# Grouping: When the tumor grew to about 80-160 mm^3 on average, a grouping was performed, and a model control group and different doses of administration groups were set.
# Administration: The mice were administrated via tail vein injection.
# The weight of mice and the long diameter (a) and short diameter (b) of tumor mass were measured twice a week. The formula for the calculation of tumor volume (TV) is: TV=½×a×b^2.
# BR0438 = test: Tumor growth inhibition in HuPrime xenograft breast cancer PDX model; type: in vivo, BALB/c-nude mice; details: 3 mg/kg, tail vein
# Procedure: (§1) Experimental scheme: The tumor tissue mass were prepared and subcutaneously inoculated into the anterior right flank of BALB/c-nude mice. When the tumor volume expanded to 80-160 mm^3, a randomized grouping was performed, and a model control group and administration groups were set. The mice were administrated from the first day of grouping, wherein the administration dose was adjusted according to the latest weight measurement. The mice were administrated via tail vein injection at an administration volume of 10 μl/g and an administration dosage of 3 mg/kg. After grouping and administration, the effects of tumor growth and treatment on normal behaviors of animals, specifically including the activity of experimental animals, food intake and drinking status, weight gain or loss status, and other abnormal conditions in eyes, hair, etc., were monitored. After grouping and administration, the weight of mice was measured twice a week to calculate the rate of weight change; at the same time, the long diameter and short diameter of the tumor were measured with a vernier caliper, and the tumor volume, relative tumor proliferation rate, tumor volume inhibition rate and other indicators were calculated. The formula of tumor volume is TV=0.5 a×b^2, wherein a is the long diameter of a tumor and b is the short diameter of a tumor.
# BR1283 = test: as above; type: in vivo, BALB/c-nude mice; details: 3 mg/kg, tail vein
# Procedure: as §1
smiles,measurement,setting,value
CC[C@H](C)[C@@H]([C@@H](CC(=O)N1CCC[C@H]1[C@H](OC)[C@@H](C)C(=O)N[C@H](C)[C@@H](O)c1ccccc1)OC)N(C)C(=O)[C@@H](NC(=O)[C@H](C(C)C)N(C)C(=O)OCc1ccc(NC(=O)C(CCCNC(N)=O)NC(=O)[C@@H](NC(=O)CCCCCN2C(=O)CC(SC[C@H](NC(=O)[C@H](CCCCN)NC(=O)[C@H](CC(=O)O)NC(=O)[C@H](CC(=O)O)NC(=O)Cc3ccc(CNC(=O)NCCCC[C@H](NC(=O)N[C@@H](CCC(=O)O)C(=O)O)C(=O)O)cc3)C(=O)N[C@@H](CCCCNC(=O)CC[C@H](NC(=O)c3ccc(NCc4cnc5[nH]c(N)nc(=O)c5n4)cc3)C(=O)O)C(N)=O)C2=O)C(C)C)cc1)C(C)C (some centres unmarked) [CB-20BK],inhibitory effect on growth and expansion of tumor cell lines,"[1]; 72 hours, CCK-8",has an inhibitory effect
same,IC50 compared between cell lines,"[1]; T-47D, KB, LNCaP, HuH-7 and CALU-3 versus NCI-H460",significantly lower
same,inhibitory effect in CDX tumor models (tumor volume),[2],good inhibitory effect
same,TGI,BR0438,70.74%
same,TGI,BR1283,96.49%
